# In patent publication US20040024024A1, “Aromatic sulfone hydroxamates and their use as protease inhibitors” (priority 2001, published 2004):
# Legend:
# Assay in all cases: In vitro MMP inhibition, IC50 determination (fluorogenic substrate I)
# Assay type in all cases: biochemical
# Settings in all cases: value outside parenthesis
# [1] = molecular target: T1, Human recombinant MMP-13 (Homo sapiens, UniProt P45452)
# T1 construct: made in house; host or cells: baculovirus / insect cells
# Method in brief: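 Fluorescence at 415 nm (excitation 328 nm) reports Gly-Leu cleavage of 4 μM quenched methoxycoumarin peptide substrate I. Human recombinant MMP-13, activated by trypsin or APMA, was incubated at room temperature with varied inhibitor concentrations in pH 7.5 Tris/NaCl/CaCl2 buffer; IC50 derived from reduced fluorescence.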
# [2] = molecular target: T2, Human recombinant MMP-14 (Homo sapiens, UniProt P50281)
# T2 construct: The catalytic domain enzyme was expressed in E. coli inclusion bodies, solubilized in urea; made in house
# Method: (§1) Several hydroxamates and salts thereof were analyzed in in vitro assays to determine their ability to inhibit the MMP cleavage of peptide substrates. Inhibition (Ki) and IC50 constants were calculated from the assayed hydroxamate-MMP interactions.
# (§2) Human recombinant MMP-1, MMP-2, MMP-9, MMP-13, and MMP-14 were used in this assay. All enzymes were prepared in Assignee's laboratories following usual laboratory procedures. Protocols for the preparation and use of these enzymes are available in the scientific literature. See, e.g., Enzyme Nomenclature (Academic Press, San Diego, Calif., 1992) (and the citations therein). See also, Frije et al., J. Biol. Chem., 26(24), 16766-73 (1994).
# The MMP-14 full length cDNA was provided by Dr. Gregory Goldberg of Washington University (St. Louis, Mo.). The catalytic domain enzyme was expressed in E. coli inclusion bodies, solubilized in urea, purified on a preparative […] reverse phase HPLC column, and then refolded in the presence of zinc acetate and purified for use.
# (§3) All MMPs were activated using 4-aminophenylmercuric acetate (“APMA”, Sigma Chemical, St. Louis, Mo.) or trypsin. MMP-9 also was activated using human recombinant MMP-3 (purified in Assignee's laboratory following standard cloning and purification techniques).
# (§4) Two fluorogenic, methoxycoumarin-containing polypeptide substrates were used in the MMP inhibition assays:
# (§5) MCA-ProLeuGlyLeuDpaAlaArgNH2 (I)
# (§6) Here, “Dpa” is 3-(2,4-dinitrophenyl)-L-2,3-diaminopropionyl group, and “MCA” is 7-methoxycoumarin-4-yl acetyl. Substrate (I) was purchased from Baychem (Redwood City, Calif.), and substrate II was prepared Assignee's laboratory. Substrate I was used in the IC50 determination assays, while substrate II was used in the Ki determination assays. In the absence of MMP inhibitory activity, either substrate is cleaved at the Gly-Leu peptide bond. This cleavage separates the highly fluorogenic peptide from the 2,4-dinitrophenyl quencher, thus resulting in increase of fluorescent intensity.
# (§7) The stock solutions of the assayed hydroxamates (or salts thereof) were prepared in 1% dimethyl sulfoxide (DMSO). These stock solutions were diluted in Buffer A (100 mM Tris-HCl, 100 mM NaCl, 10 mM CaCl2, 0.05% polyoxyethylene 23 lauryl ether, pH 7.5) to obtain solutions with different hydroxamate concentrations, i.e., assay solutions with different concentrations of the assayed MMP inhibitory compound. The experiment controls contained the same amount of Buffer A/DMSO as the assayed sample, but contained no hydroxamate (or salt thereof).
# (§8) The assays from which the IC50 determinations were made were performed as follows. The MMPs were activated with either trypsin or APMA (4-aminophenylmercuric acetate, Sigma Chemical, St. Louis, Mo.). The assayed hydroxamate samples were, incubated in Microfluorrm White Plates (Dynatech, Chantilly, VA) and analyzed on a Perkin Elmer L550 plate reader (Norwalk, Conn.). The excitation wavelength was 328 nm, and the emission wavelength—415 nm. All samples (assayed hydroxamates and controls) were incubated in separate plates at room temperature in the presence of 4 μM of MMP substrate (I). As stated in the previous paragraph, samples containing varying concentrations of the same assayed hydroxamate were prepared. Inhibition was measured as a reduction in fluorescent intensity as a function of MMP inhibitor concentration.
# [3] = molecular target: T3, Human recombinant MMP-9 (Homo sapiens, UniProt P14780)
# T3 construct: made in house; host or cells: MMP-9-transfected HT1080 cells (spent media)
# T3 sequence (P14780 107-707 limits assumed): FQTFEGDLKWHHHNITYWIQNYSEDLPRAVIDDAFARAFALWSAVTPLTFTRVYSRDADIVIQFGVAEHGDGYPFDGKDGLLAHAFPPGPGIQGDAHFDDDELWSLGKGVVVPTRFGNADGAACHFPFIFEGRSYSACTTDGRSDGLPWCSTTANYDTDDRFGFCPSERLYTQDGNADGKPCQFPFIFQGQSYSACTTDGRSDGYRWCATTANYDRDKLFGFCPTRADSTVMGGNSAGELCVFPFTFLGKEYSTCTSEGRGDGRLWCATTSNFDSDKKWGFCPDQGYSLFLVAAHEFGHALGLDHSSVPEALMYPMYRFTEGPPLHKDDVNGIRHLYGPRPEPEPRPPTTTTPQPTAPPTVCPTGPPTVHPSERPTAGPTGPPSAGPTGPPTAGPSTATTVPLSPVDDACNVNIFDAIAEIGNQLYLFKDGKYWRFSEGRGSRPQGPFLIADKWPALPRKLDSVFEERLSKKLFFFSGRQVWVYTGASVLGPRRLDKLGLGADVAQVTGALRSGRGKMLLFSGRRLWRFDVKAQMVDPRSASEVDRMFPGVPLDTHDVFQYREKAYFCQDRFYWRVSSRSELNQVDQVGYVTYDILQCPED
# Method: as §1, §2
# The MMP-9 proenzyme was purified by gelatin Sepharose chromatography from spent media of MMP-9-transfected HT1080 cells provided by Dr. Howard Welgus of Washington University (St. Louis, Mo.).
# as §3, §4, §5, §6, §7, §8
# [4] = molecular target: T4, Human recombinant MMP-2 (Homo sapiens, UniProt P08253)
# T4 construct: made in house; host or cells: MMP-2-transfected p2AHT2 cells
# T4 sequence (P08253 110-660): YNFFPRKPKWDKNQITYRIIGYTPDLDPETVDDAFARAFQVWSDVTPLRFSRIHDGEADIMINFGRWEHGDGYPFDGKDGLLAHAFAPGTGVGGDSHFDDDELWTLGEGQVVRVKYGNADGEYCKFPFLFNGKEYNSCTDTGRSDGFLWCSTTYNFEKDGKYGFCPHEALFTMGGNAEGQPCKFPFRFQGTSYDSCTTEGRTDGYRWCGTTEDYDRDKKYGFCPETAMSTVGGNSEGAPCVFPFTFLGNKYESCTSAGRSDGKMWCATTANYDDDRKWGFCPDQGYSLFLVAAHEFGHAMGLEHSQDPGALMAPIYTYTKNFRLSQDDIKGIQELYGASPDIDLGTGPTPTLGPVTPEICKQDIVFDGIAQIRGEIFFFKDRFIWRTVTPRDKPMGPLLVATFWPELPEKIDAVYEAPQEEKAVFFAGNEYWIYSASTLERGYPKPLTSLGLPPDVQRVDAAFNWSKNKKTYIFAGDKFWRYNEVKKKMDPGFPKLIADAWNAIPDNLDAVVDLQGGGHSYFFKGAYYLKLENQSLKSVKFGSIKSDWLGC
# Method in brief: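 APMA- or trypsin-activated recombinant MMP-2 was incubated at room temperature with serial inhibitor dilutions in Tris buffer pH 7.5 (100 mM NaCl, 10 mM CaCl2, 0.05% Brij), with DMSO from 1% stocks, and 4 μM substrate I. Cleavage was read by fluorescence at 328/415 nm; IC50 was taken from the loss of fluorescence versus inhibitor concentration.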
# [5] = molecular target: T5, Human recombinant MMP-1 (Homo sapiens, UniProt P03956)
# T5 construct: made in house; host or cells: MMP-1-transfected HT-1080 cells (spent media)
# T5 sequence (P03956 100-469): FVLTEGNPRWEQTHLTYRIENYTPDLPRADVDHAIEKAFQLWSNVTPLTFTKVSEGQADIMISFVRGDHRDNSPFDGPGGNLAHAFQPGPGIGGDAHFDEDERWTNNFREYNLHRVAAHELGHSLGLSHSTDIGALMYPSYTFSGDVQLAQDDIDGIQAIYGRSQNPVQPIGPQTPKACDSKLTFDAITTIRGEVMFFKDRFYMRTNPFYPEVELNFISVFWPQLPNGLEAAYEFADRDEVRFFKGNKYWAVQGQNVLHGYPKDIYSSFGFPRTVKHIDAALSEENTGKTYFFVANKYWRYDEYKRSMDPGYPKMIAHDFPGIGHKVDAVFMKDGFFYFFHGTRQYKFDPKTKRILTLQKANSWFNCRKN
# Method in brief: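 APMA- or trypsin-activated enzyme, purified from spent media of transfected HT-1080 cells, incubated at room temperature with 4 μM MCA-Pro-Leu-Gly-Leu-Dpa-Ala-Arg-NH2 and graded inhibitor in Tris buffer pH 7.5 (10 mM CaCl2, 0.05% Brij). Cleavage read by fluorescence (ex 328/em 415 nm); IC50 from fluorescence reduction versus inhibitor concentration.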
Structure (SMILES),IC50 [1] [nM],IC50 [2] [nM],IC50 [3] [nM],IC50 [4] [nM],IC50 [5] [nM]
C[C@@H]1C(=O)N(CCCOc2ccc(S(=O)(=O)C3(C(=O)NO)CCOCC3)cc2)C(=O)N1c1ccccc1 [Example 145],2,> 10000,9440,817,> 10000
COc1ccc(C(=O)C(O)CCOc2ccc(S(=O)(=O)C3(C(=O)NO)CCOCC3)cc2)cc1 (stereo not drawn) [Example 184],3.9,2720,104,30.4,1530
CN(C)Cc1ccc(C(=O)CCCCOc2ccc(S(=O)(=O)C3(C(=O)NO)CCN(C4CC4)CC3)cc2)cc1 [Example 187],1.8,1420,11.2,3.6,3870
O=C(NO)C1(S(=O)(=O)c2ccc(OCCSc3nc4ccc(Cl)cc4o3)cc2)CCN(C2CC2)CC1 [Example 188],0.3,3540,48.2,4.7,> 10000
CCc1ccc(N2CCN(CCCOc3ccc(S(=O)(=O)C4(C(=O)NO)CCOCC4)cc3)C2=O)cc1 [Example 191],9.5,> 10000,383,341,6960
O=C1N(CCCOc2ccc(S(=O)(=O)C3(C(=O)NO)CCOCC3)cc2)CCN1c1ccc(C(F)(F)F)cc1 [Example 193],6.8,> 10000,273,312,5930
O=C1N(CCCOc2ccc(S(=O)(=O)C3(C(=O)NO)CCOCC3)cc2)CCN1c1ccc(OC(F)(F)F)cc1 [Example 194],6.2,> 10000,516,222,> 10000
O=C1N(CCCOc2ccc(S(=O)(=O)C3(C(=O)NO)CCOCC3)cc2)CCN1c1ccc(F)cc1 [Example 195],7.5,2740,45.8,20.6,4380
O=C(NO)C1(S(=O)(=O)c2ccc(OCCCc3nnc(-c4ccc(OC(F)(F)F)cc4)o3)cc2)CCOCC1 [Example 200],0.6,> 10000,1210,84,7500
Cc1ccc(/C(C#N)=C/CCCOc2ccc(S(=O)(=O)C3(C(=O)NO)CCN(C4CC4)CC3)cc2)cc1C [Example 201],0.7,> 10000,4510,128,> 10000
O=C(NO)C1(S(=O)(=O)c2ccc(OCCCSc3nc4ccccc4o3)cc2)CCN(C2CC2)CC1 [Example 203],1,> 10000,6,4.2,> 10000
Cc1ccc(-c2nnc(CCCOc3ccc(S(=O)(=O)C4(C(=O)NO)CCOCC4)cc3)o2)c(C)c1 [Example 204],0.6,> 10000,1820,146,> 10000
CCCc1ccc(-c2nc(CCCOc3ccc(S(=O)(=O)C4(C(=O)NO)CCN(CCOC)CC4)cc3)oc2C)cc1 [Example 206],15.8,3110,59.4,92.6,> 10000
CCCc1ccc(-c2nc(CCCOc3ccc(S(=O)(=O)C4(C(=O)NO)CCOCC4)cc3)oc2C)cc1 [Example 207],3.7,> 10000,127,114,> 10000
O=C(NCCCOc1ccc(S(=O)(=O)C2(C(=O)NO)CCN(C3CC3)CC2)cc1)c1ccc(OC(F)(F)F)cc1 [Example 208],0.6,> 10000,6590,230,> 10000
CC(C)Oc1ccc(-c2nnc(CCCOc3ccc(S(=O)(=O)C4(C(=O)NO)CCOCC4)cc3)o2)cc1 [Example 209],1.4,> 10000,906,172,> 10000
O=C(NO)C1(S(=O)(=O)c2ccc(OCCCc3nc(-c4cccc([N+](=O)[O-])c4)no3)cc2)CCOCC1 [Example 210],1.3,> 10000,285,6.9,> 10000
O=C(NO)C1(S(=O)(=O)c2ccc(OCCCc3nc(-c4cc(F)ccc4F)no3)cc2)CCOCC1 [Example 211],0.4,> 10000,864,26.2,9650
O=C(NO)C1(S(=O)(=O)c2ccc(OCCCc3nc(-c4ccc([N+](=O)[O-])cc4)no3)cc2)CCOCC1 [Example 212],0.3,> 10000,212,4.1,1410
O=C(NO)C1(S(=O)(=O)c2ccc(OCCCc3nc(-c4cccc(Cl)c4Cl)no3)cc2)CCOCC1 [Example 213],2.2,> 10000,2200,54.8,> 10000
O=C(NO)C1(S(=O)(=O)c2ccc(OCCCc3nc(-c4c(Cl)cccc4Cl)no3)cc2)CCOCC1 [Example 214],3.3,> 10000,4240,15.8,> 10000
